Blank lines part the entries; values can stand above or below the compound they belong to.
What was measured:
[1] = target: T1, Dual specificity tyrosine-phosphorylation-regulated kinase 2 (Homo sapiens) (UniProt Q92630); assay: Selectivity interaction (Kinase panel (DSF assay)) EUB0001559a DYRK2
T1 sequence (whole entry): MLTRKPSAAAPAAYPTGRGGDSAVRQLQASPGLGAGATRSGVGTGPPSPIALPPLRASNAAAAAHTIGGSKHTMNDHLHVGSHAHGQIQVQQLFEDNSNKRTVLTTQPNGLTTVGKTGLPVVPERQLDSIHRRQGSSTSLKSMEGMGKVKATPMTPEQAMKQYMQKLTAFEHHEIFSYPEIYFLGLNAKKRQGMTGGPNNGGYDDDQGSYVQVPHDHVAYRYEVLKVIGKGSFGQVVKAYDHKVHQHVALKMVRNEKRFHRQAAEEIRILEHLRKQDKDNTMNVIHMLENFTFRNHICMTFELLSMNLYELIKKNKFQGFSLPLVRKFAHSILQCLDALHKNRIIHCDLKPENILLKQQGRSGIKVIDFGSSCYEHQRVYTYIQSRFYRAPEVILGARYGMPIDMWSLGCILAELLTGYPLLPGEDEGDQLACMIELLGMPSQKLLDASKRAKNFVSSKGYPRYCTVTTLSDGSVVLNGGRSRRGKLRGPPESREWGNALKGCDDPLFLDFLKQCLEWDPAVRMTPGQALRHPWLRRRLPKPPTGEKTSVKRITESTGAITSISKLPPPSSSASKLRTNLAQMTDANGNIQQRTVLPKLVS

[2] = target: Ribosomal protein S6 kinase alpha-5 (Homo sapiens) (UniProt O75582); assay: Selectivity interaction (Kinase panel (DSF assay)) EUB0001559a RPS6KA5
Ribosomal protein S6 kinase alpha-5 (Homo sapiens), sequence (O75582 whole entry, looked up): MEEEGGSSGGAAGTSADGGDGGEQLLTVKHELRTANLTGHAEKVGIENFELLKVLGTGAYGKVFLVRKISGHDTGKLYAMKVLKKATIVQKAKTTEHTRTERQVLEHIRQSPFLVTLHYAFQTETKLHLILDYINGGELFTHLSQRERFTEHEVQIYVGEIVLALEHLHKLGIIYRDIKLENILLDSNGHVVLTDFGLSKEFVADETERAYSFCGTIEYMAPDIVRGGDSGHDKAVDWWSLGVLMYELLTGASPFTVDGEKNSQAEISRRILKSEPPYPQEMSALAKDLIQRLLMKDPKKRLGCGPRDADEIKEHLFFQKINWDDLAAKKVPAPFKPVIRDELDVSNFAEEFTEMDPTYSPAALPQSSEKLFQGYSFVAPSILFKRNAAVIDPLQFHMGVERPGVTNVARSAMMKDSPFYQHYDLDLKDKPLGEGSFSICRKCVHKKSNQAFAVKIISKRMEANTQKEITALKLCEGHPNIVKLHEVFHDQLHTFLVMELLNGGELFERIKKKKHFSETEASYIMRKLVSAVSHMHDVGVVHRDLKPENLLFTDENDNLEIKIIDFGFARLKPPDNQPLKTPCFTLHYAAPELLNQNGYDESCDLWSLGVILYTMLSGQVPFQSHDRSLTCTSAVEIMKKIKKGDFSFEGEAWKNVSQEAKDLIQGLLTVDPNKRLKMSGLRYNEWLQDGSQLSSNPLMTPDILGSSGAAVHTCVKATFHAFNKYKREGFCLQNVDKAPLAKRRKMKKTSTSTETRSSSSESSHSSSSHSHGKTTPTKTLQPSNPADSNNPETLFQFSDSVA

[3] = target: T2, Myosin-IIIb (Homo sapiens) (UniProt Q8WXR4); assay: Selectivity interaction (KinomeScan (DiscoverX)) EUB0000655a MYO3B; conditions: at 10 µM
T2 sequence (whole entry): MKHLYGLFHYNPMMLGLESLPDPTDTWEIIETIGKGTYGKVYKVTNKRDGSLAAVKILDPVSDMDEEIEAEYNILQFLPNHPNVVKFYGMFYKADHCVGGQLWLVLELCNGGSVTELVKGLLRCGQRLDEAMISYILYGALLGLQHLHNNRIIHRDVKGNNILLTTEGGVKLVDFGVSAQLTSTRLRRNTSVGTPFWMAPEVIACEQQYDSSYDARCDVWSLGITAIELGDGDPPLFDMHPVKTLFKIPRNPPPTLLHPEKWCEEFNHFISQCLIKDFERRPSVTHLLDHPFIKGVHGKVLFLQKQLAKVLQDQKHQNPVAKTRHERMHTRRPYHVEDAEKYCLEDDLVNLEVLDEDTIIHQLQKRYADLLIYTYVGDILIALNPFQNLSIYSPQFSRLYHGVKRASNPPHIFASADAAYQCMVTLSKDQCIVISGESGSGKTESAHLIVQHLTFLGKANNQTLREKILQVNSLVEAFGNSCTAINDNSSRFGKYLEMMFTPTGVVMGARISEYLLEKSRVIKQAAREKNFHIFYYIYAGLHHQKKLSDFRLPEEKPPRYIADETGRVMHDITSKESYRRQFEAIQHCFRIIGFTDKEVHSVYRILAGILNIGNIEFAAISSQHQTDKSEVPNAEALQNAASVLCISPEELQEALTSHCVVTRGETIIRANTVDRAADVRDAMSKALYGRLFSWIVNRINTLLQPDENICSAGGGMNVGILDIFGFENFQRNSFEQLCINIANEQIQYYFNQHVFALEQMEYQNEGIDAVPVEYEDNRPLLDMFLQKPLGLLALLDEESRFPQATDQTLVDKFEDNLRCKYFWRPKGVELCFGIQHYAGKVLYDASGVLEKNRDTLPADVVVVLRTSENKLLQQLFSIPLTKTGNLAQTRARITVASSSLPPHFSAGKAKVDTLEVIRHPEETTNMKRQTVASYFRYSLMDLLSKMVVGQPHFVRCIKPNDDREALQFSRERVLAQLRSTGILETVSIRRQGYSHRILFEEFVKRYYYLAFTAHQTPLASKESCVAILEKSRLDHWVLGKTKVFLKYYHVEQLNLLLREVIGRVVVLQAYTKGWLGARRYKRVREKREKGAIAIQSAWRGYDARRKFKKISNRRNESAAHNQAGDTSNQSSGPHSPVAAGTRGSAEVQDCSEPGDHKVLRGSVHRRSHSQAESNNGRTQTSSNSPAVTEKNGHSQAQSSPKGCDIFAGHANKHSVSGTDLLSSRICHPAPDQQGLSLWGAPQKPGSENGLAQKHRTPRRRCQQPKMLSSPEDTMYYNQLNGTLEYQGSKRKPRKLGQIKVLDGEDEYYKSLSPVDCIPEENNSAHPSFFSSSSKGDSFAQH

[4] = target: Ribosomal protein S6 kinase alpha-2 (Homo sapiens) (UniProt Q15349); assay: Selectivity interaction (KinomeScan (DiscoverX)) EUB0001079a RPS6KA2; conditions: at 1 µM
Ribosomal protein S6 kinase alpha-2 (Homo sapiens), sequence (Q15349 whole entry): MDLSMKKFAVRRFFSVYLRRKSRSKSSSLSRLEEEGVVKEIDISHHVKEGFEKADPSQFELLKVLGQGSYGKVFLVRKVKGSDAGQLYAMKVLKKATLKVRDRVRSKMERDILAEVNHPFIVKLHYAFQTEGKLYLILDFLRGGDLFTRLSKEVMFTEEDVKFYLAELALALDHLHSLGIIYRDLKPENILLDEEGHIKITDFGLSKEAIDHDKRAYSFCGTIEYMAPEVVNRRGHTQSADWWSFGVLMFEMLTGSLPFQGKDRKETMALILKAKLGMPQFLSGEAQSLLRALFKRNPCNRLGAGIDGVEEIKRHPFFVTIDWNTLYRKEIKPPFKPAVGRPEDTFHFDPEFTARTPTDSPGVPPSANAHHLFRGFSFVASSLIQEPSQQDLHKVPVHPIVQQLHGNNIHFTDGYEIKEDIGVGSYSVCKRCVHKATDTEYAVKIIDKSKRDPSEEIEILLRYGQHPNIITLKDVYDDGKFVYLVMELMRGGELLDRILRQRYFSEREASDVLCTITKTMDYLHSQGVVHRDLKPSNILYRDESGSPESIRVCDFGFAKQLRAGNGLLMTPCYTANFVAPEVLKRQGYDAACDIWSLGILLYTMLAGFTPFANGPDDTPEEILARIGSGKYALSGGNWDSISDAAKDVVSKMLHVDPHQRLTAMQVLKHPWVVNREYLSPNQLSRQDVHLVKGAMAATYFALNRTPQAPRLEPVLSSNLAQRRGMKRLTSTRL

[5] = target: Mitogen-activated protein kinase 10 (Homo sapiens, UniProt P53779); assay: Selectivity interaction (KinomeScan (DiscoverX)) EUB0000618a MAPK10; conditions: at 10 µM
Mitogen-activated protein kinase 10, sequence (P53779 whole entry): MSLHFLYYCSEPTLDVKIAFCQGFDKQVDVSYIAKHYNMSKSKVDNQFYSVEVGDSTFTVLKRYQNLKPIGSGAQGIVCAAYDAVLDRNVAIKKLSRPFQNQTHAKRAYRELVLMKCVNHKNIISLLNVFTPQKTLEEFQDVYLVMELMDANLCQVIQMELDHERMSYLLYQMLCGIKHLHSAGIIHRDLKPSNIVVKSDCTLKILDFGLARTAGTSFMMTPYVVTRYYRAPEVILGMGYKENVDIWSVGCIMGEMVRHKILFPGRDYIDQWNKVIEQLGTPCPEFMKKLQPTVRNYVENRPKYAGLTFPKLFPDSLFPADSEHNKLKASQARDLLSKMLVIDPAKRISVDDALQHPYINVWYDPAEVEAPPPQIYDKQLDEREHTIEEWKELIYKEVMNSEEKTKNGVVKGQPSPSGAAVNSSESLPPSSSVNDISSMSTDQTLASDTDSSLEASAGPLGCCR

[6] = target: Death-associated protein kinase 1 (Homo sapiens, UniProt P53355); assay: Selectivity interaction (KinomeScan (DiscoverX)) EUB0000607a DAPK1; conditions: at 10 µM
Death-associated protein kinase 1, sequence (P53355 whole entry, looked up): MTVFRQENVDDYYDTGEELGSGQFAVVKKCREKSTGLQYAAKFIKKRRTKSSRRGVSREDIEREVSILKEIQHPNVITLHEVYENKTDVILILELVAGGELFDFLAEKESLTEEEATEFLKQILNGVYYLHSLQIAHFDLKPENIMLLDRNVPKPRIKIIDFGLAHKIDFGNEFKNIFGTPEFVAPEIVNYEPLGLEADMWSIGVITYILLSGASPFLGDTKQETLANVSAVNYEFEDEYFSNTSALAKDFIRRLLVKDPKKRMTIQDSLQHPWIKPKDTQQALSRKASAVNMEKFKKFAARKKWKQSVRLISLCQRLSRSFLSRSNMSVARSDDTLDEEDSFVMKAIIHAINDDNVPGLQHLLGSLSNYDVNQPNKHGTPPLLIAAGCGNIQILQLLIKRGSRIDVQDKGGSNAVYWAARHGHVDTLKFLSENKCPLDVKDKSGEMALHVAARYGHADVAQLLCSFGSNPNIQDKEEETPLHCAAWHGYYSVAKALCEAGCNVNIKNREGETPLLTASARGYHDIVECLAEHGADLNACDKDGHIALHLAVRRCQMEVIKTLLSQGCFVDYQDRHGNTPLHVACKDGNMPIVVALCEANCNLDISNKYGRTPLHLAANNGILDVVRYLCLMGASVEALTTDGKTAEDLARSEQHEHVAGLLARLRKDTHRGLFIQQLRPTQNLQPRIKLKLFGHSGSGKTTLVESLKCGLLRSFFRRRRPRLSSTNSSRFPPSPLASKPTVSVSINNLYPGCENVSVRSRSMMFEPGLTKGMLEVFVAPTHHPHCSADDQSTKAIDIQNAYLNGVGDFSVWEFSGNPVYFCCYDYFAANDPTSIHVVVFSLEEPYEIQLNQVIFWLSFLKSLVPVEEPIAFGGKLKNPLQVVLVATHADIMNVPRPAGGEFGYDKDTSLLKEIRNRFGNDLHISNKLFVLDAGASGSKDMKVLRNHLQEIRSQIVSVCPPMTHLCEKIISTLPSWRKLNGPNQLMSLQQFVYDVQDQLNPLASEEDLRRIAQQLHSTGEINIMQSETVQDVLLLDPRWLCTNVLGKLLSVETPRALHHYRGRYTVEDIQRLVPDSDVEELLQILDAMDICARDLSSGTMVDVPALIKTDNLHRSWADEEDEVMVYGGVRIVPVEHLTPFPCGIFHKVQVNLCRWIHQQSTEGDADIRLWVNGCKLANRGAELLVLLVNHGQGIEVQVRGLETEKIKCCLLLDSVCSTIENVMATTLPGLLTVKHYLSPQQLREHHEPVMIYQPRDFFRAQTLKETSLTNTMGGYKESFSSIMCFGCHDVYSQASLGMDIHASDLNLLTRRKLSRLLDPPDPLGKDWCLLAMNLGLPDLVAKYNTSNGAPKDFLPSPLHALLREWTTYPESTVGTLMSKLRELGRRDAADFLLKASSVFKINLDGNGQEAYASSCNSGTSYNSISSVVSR

[7] = target: MAP/microtubule affinity-regulating kinase 3 (Homo sapiens) (UniProt P27448); assay: Selectivity interaction (ActivX KiNativ screen (kinase selectivity in THP-1 cell lysates)) EUB0000639a MARK3; format: subcellular; conditions: lysate, at 0.04 µM
MAP/microtubule affinity-regulating kinase 3 (Homo sapiens), sequence (P27448 whole entry, looked up): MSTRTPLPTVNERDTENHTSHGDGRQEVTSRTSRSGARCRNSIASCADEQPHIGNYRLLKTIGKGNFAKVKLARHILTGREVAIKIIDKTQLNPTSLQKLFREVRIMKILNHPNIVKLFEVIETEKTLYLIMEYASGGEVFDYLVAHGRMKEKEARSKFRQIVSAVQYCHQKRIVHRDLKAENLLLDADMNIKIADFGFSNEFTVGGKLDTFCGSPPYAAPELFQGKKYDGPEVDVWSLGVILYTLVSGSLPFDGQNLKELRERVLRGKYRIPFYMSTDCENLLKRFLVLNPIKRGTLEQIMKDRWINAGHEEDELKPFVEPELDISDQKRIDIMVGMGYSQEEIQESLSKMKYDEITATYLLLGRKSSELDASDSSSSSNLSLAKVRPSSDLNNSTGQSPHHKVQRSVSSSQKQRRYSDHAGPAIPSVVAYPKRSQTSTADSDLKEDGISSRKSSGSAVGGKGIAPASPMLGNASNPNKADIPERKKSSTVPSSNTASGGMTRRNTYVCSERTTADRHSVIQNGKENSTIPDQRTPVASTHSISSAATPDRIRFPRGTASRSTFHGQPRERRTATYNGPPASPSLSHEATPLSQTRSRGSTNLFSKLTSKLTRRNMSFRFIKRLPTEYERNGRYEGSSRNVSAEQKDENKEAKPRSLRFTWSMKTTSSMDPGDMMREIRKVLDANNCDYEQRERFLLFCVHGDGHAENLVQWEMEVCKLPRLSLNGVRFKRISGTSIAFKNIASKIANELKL

[8] = target: Mitogen-activated protein kinase 11 (Homo sapiens) (UniProt Q15759); assay: Selectivity interaction (KinomeScan (DiscoverX)) EUB0001049a MAPK11; conditions: at 1 µM
Mitogen-activated protein kinase 11 (Homo sapiens), sequence (Q15759 whole entry): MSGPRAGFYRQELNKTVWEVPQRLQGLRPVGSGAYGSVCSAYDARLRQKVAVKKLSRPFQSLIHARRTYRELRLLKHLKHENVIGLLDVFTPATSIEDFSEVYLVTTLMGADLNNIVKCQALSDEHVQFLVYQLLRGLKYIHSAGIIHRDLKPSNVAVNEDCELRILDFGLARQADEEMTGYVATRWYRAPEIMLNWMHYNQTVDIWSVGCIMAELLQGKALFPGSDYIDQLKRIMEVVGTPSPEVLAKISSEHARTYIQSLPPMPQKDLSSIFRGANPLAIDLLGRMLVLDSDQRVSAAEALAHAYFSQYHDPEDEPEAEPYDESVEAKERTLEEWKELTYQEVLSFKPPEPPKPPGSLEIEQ

dTM [1]: -0.4 K | dTM [2]: 0.3 K
SMILES: CN(C(=O)c1cnn2cccnc12)c1cc2c(cc1N1CCOCC1)C(=O)N(C[C@@H](F)C(C)(C)O)C2

SMILES: CN(C)CCOc1ccc(-c2nc(-c3ccncc3)c(-c3ccc4c(c3)CC/C4=N\O)[nH]2)cc1
% of control [3]: 81%

SMILES: Nc1cnc(N2CCc3cc(S(=O)(=O)Nc4c(F)cc(Cl)cc4F)cc(N4CCCC4=O)c32)nc1 [TP-020n]
% of control [4]: 88%

SMILES: O[C@H]1CC[C@H](Nc2ncc3nc(Nc4c(F)cc(F)cc4F)n([C@H]4CCOC4)c3n2)CC1
% of control [5]: 0%

SMILES: CNC(=O)Nc1ccc(-c2nc(N3CC4CCC(C3)O4)c3cnn(C4CCC5(CC4)OCCO5)c3n2)cc1
% of control [6]: 12%

% of inhibition [7]: 9.1%
SMILES: CC[C@@H]1[C@H](F)C(=O)N[C@@H]1COc1nccc2cc(C(N)=O)c(OC)cc12 [ZIMLOVISERTIB]

SMILES: COc1cc(Nc2nc(C)cc(-c3cnn4nc(OC)ccc34)n2)cc(C(F)(F)F)c1
% of control [8]: 100%

From ChEMBL document CHEMBL5465560, “Selectivity Literature for EUbOPEN Chemogenomic Library” (2024)
